The test system of one series is IL-12 mRNA. Put plainly: IL-12 mRNA in LPS-activated primary murine macrophages. It counts as cell-based, mouse. The conditions noted are these: normalized to LPS-treated cells without oligomeric compound.
The test system of the next series is HuVECs. Put plainly: Endothelial tube formation assay in HuVECs. The following applies: 75 nM oligomeric compound, Table 59.
For another series, the system named is mir-30a pri-miRNA. Briefly: mir-30a luciferase reporter (pGL3C-M30-4X) assay in 293T cells. In kind it is cell-based, human. The following applies: for percent control luciferase expression: 150 nM oligomeric compound, then mir-30a pri-miRNA mimic 200 nM, pGL3C-M30-4X normalized to pRL-CMV. The text has this:
In one embodiment of the invention, oligomeric compounds targeting the hairpin structure of mir-30a pri-miRNA were designed and tested for their effects on miRNA signaling in 293T cells (American Type Culture Collection (Manassas, Va.)).
A synthetic DNA fragment comprised of four tandem repeats of the target site for mir-30a was cloned into the vector pGL3-C (purchased from Promega Corp., Madison Wis.) at the unique XbaI site (pGL3C-M30-4X). This places the target site in the 3′UTR of the luciferase reporter vector. An oligomeric compound mimicking the mir-30a pri-miRNA ([…] […], herein incorporated as SEQ ID NO: 1749) was in vitro transcribed using T7 RNA polymerase and a DNA template produced by PCR (the T7 promoter is shown in bold).
On the day prior to the experiment 24-well plates were seeded with 293T cells at 50% confluency. The following morning cells were treated with oligomeric compounds targeted to the mir-30a pri-miRNA mimic. All of the compounds are 20 nucleobases in length having either a phosphorothioate backbone throughout (PS) or a phosphodiester backbone throughout (PO). […] All cytidine residues are 5-methylcytidines. The remaining compounds in the table have 2′-methoxyethoxy (MOE) nucleotides throughout with either a phosphorothioate (PS) or phosphodiester (PO) internucleoside linkages.
Cells were washed once with PBS then oligomeric compounds were added to triplicate wells at 150 nM in OPTI-MEM™ media and 4.5 μl/ml LIPOFECTIN™ reagent (Invitrogen Corporation, Carlsbad, Calif.). After 3 hours, the media was removed, and the cells were treated with the mir-30a pri-miRNA mimic at 200 nM in OPTI-MEM™ with 6 μl/ml LIPOFECTIN™ reagent. After 3 hours the media was removed from the cells. The reporter plasmid, pGL3C-M30-4X, was then transfected using SuperFect reagent. 20 μg of pGL3C-M30-4X and 2 μg of pRL-CMV, a plasmid expressing Renilla luciferase, were suspended in 600 μL of serum-free DMEM to which 120 μl of Superfect was added. After a 5 minute incubation, 6 mls of DMEM+10% FCS was added. 125 μL of the plasmid/SuperFect suspension was added to each well. After a 2 hour incubation cells were washed and fresh growth media added. Cells were incubated overnight.
The following morning the media was removed and the cells were lysed in 120 μL passive lysis buffer (PLB; Promega). 40 μL of the lysate was then assayed for Photinus (PL) and Renilla (RL) luciferases using a Dual Luciferase Assay kit (Promega) according to the manufacturer's protocol. The results below are given as percent pGL3C-M30-4× expression (PL) normalized to pRL-CMV expression (RL). The 20-nucleobase oligonucleotide random-mer ISIS Number 29848 was used as a negative control.
(In a reporter assay the amount or activity of a reporter protein is the signal.)

The next series has as its system mir-15a miRNA. Put plainly: pGL3-mir-15a sensor luciferase assay in HeLa cells. It counts as cell-based, human. The conditions noted are these: pGL3-mir-15a sensor-expressing HeLa cells. The text has this: In order to assess the ability of miRNAs to bind predicted miRNA binding sites and regulate the expression of the luciferase reporter, in some embodiments, expression systems based on the pGL3-Control (Promega Corp., Madison Wis.) reporter vector and comprising either a mir-15a, mir-21, or a mir-23b miRNA binding site were developed and used in transient transfections of HeLa cells to determine whether the endogenous mir-15a, mir-21, or mir-23b miRNAs, respectively, could repress luciferase reporter gene expression.
The pGL3-mir-15a sensor plasmid was created by cloning the sequence ([…]; SEQ ID NO: 369), complementary to the mir-15a miRNA, into the Xba site of the pGL3-Control plasmid, placing the potential miRNA-binding site in the 3′UTR of the luciferase reporter. This reporter plasmid was used to transfect HeLa cells and it was observed that the endogenous mir-15a miRNA was able to inhibit luciferase expression from the pGL3-mir-15a sensor plasmid. Thus, to further evaluate the ability of the mir-15a miRNA to bind this target site encoded by the pGL3-mir-15a sensor plasmid, and to assess the ability of oligomeric compounds to interfere with mir-15a-mediated silencing, pGL3-mir-15a sensor-expressing HeLa cells were treated with varying concentrations (3-, 10- or 30 nM) of the following oligomeric compounds: ISIS Number 327951 (SEQ ID NO: 369) is a uniform 2′-MOE compound targeting the mature mir-15a-1 miRNA. ISIS Numbers 356213 (SEQ ID NO: 878), 356215 (SEQ ID NO: 879), 356216 (SEQ ID NO: 880), 356218 (SEQ ID NO: 881), 356221 (SEQ ID NO: 882), 356227 (SEQ ID NO: 883) and 356229 (SEQ ID NO: 884) are phosphorothioate, uniform 2′-MOE oligomeric compounds designed and synthesized to target the entire length of the mir-15a pri-miRNA molecule (described in detail in Example 28, below). […] The data presented in Table 42 are the average of three trials and are presented as percent untreated control (luciferase plasmid only, not treated with oligomeric compound) luciferase expression, normalized to pRL-CMV levels.

A further series relates to mir-15a pri-miRNA. Put plainly: mir-15a pri-miRNA expression in T47D cells (real-time RT-PCR). It counts as cell-based, human. The following applies: real-time RT-PCR. From the text:
The gapmer oligomeric compounds targeting the mir-15b and mir-15-a-1 mature miRNAs described above were also transfected into T47D cells according to standard procedures. In addition, uniform 2′-MOE and 2′-MOE gapmer oligomeric compounds targeting the mature mir-15a-1 and mir-15b miRNAs were also transfected into T47D cells, for analysis of their effects on mir-15a-1 and mir-15b pri-miRNA levels. The oligomeric compounds ISIS Number 327927 (SEQ ID NO: 345), a uniform 2′-MOE compound and ISIS Number 345391 (SEQ ID NO: 345), a 2′-MOE 5-10-7 gapmer compound, both target mir-15b. The oligomeric compounds ISIS Number 327951 (SEQ ID NO: 369), a uniform 2′-MOE compound, and ISIS Number 345411 (SEQ ID NO: 369), a 2′-MOE 5-10-7 gapmer compound, both target mir-15a-1. Oligomeric compounds ISIS Number 129686 ([…]; SEQ ID NO: 901), and ISIS Number 129691 ([…]; SEQ ID NO:902), both universal scrambled controls, as well as ISIS Number 116847 ([…]; SEQ ID NO: 844) targeting an unrelated gene, PTEN, were used as negative controls. ISIS Numbers 129686, 129691, and 116847 are phosphorothiated 2′-MOE 5-10-5 gapmers, and all cytosines are 5-methylcytosines. T47D cells (seeded in 12-well plates) were treated with these oligomeric compounds, and RNA was isolated from the treated cells by lysing in 1 mL TRIZOL™ (Invitrogen) and total RNA was prepared using the manufacturer's recommended protocols. To assess the effects of these compounds on expression of the mir-15a or mir-15b pri-miRNA molecules, real-time RT-PCR analysis was performed using either the primer/probe set specific for the mir-15a pri-miRNA molecule described above, or a primer probe set specific for the mir-15b pri-miRNA molecule: ISIS 339320 ([…]; SEQ ID NO: 903) was used as the forward primer for the mir-15b pri-miRNA, ISIS 339321 ([…] ACTGT; SEQ ID NO: 904) was used as the reverse primer for the mir-15b pri-miRNA, and ISIS 339322 ([…]; SEQ ID NO: 905) was used as the probe. Total RNA was quantified using RiboGreen™ RNA quantification reagent (Molecular Probes, Inc. Eugene, Oreg.), expression levels observed for each target were normalized to 5.8S rRNA, and values are expressed relative to the untreated control. Inhibition of expression of the mir15a or mir-15b pri-miRNA molecules upon treatment with these oligomeric compounds is was assessed and expressed as a percentage of RNA levels in untreated control cells.
Using the real-time RT-PCR methods described, the expression levels of the mir-15a pri-miRNA were compared in T47D cells treated with the nested series of uniform 2′-MOE oligomeric compounds, targeting and spanning the entire length of the mir-15a pri-miRNA. The region encompassing the mir-15a primary transcript (the complement of nucleotides 31603159 to 31603468 of GenBank Accession number NT—024524.13; AAATAATTATG […]) is incorporated herein as SEQ ID NO: 906. ISIS Number 356215 (SEQ ID NO: 879) targets a region flanking and immediately 5′ to the predicted 5′ Drosha cleavage site in the mir-15a pri-miRNA. ISIS Number 356218 (SEQ ID NO: 881) targets aregion in the loop of the mir-15a pri-miRNA. ISIS 356227 (SEQ ID NO: 883) targets a region flanking and immediately 3′ to the predicted 3′ Drosha cleavage site in the mir-15a pri-miRNA. Additionally, oligomeric compound ISIS 327951 (SEQ ID NO: 369), a uniform 2′-MOE compound targeting the mature mir-15a-1 miRNA, was tested for comparison. Oligomeric compounds ISIS 327901 (SEQ ID NO: 319) targeting the mature mir-143 miRNA; ISIS 129690, ([…]; SEQ ID NO: 907), a phosphorothioate 5-10-5 MOE gapmer used as a universal scrambled control; and ISIS 116847 ([…]; SEQ ID NO: 844), a uniform 5-10-52′-MOE gapmer targeting an unrelated gene, PTEN, were used as negative controls. Using the transfection methods previously described, T47D cells were treated with 100 nM of each of these oligomeric compounds. […]
For orientation: Quantitative PCR measures a nucleic acid by following its amplification.

In the oligonucleotide strings, read from the 5' end, every base follows the letter of its sugar. An asterisk marks phosphorothioate; unmarked linkages are phosphodiester. Other units and linkages are bracketed, terminal groups are in braces. A string of capitals states the bases alone. e = 2'-O-(2-methoxyethyl) (MOE); [5mC] = 5-methylcytosine; d = 2'-deoxy (DNA)

Protocol for HuVECs: In some embodiments, HUVECs are used to measure the effects of oligomeric compounds of the invention on endothelial tube formation activity. The tube formation assay is performed using an in vitro Angiogenesis Assay Kit (Chemicon International, Temecula, Calif.).
Untreated control cells receive LIPOFECTIN™ only.
Approximately fifty hours after transfection, cells are transferred to 96-well plates coated with ECMatrix™ (Chemicon International). Under these conditions, untreated HUVECs form tube-like structures. After an overnight incubation at 37° C., treated and untreated cells are inspected by light microscopy. Tube formation in cells treated with oligomeric compounds is compared to that in untreated control cells. Individual wells are assigned discrete scores from 1 to 5 depending on the extent of tube formation. A score of 1 refers to a well with no tube formation while a score of 5 is given to wells where all cells are forming an extensive tubular network.
In one embodiment, primary human umbilical vein endothelial cells (HuVECs) were used to measure the effects of oligomeric compounds targeted to miRNAs on tube formation activity. HuVECs were routinely cultured in EBM (Clonetics Corporation, Walkersville, Md.) supplemented with SingleQuots supplements (Clonetics Corporation, Walkersville, Md.). […] HuVECs are plated at 3000 cells/well in 96-well plates. One day later, cells are transfected with oligomeric compounds. The tube formation assay is performed using an in vitro Angiogenesis Assay Kit (Chemicon International, Temecula, Calif.).
ISIS 29248 and ISIS 196103 are chimeric 5-10-52′-MOE gapmer oligonucleotides. […] All cytidine residues are 5-methylcytidines. ISIS 342672 (SEQ ID NO: 789) contains 13 mismatches with respect to the mature mir-143 miRNA, and was also used as a negative control. ISIS 342672 is a uniform 2′-MOE phosphorothioate oligomeric compound 22 nucleotides in length. All cytidine residues are 5-methylcytidines.
Oligomeric compound was mixed with LIPOFECTIN™ (Invitrogen Life Technologies, Carlsbad, Calif.) in OPTI-MEM™ (Invitrogen Life Technologies, Carlsbad, Calif.) to achieve a final concentration of 75 nM of oligomeric compound and 2.25 μg/mL LIPOFECTIN™. Before adding to cells, the oligomeric compound, LIPOFECTIN™ and OPTI-MEM™ were mixed thoroughly and incubated for 0.5 hrs. Untreated control cells received LIPOFECTIN™ only. […] Compounds targeted to miRNAs were tested in triplicate, and ISIS 29848 was tested in up to six replicates. […] 100 μL of full growth medium was added to each well. Fifty hours after transfection, cells are transferred to 96-well plates coated with ECMa-trix™ (Chemicon Inter-national). Under these conditions, untreated HuVECs form tube-like structures.

For the substance “327874 (antisense eG*e[5mC]*eT*eG*e[5mC]*eA*eA*eA*e[5mC]*eA*eT*e[5mC]*e[5mC]*eG*eA*e[5mC]*eT*eG*eA*eA*eA*eG) [compound 327874]”, the “IL-12 mRNA expression, −IFN % UTC” value in the series with IL-12 mRNA (300 nM oligomeric compound and LPS, no IFN-gamma pretreatment, single experiment) was 202 % UTC. Also, the “IL-12 mRNA expression, +IFN % UTC” value with IL-12 mRNA (300 nM oligomeric compound, stimulation with IFN-gamma and LPS, average of 2 experiments) is on record as 15 % UTC. In addition, the “% Activity Relative to UTC (tube formation)” value with HuVECs stood at 46.7%. Moreover, in the series on mir-30a pri-miRNA, the “percent control luciferase expression” value was 66 percent control. As for “356213 (eT*eA*eT*eA*eA*e[5mC]*eA*eT*eT*eG*eA*eT*eG*eT*eA*eA*eT*eA*eT*eG) [compound 356213]”, the Relative luciferase activity is 101.2 in the series with mir-15a miRNA (3 nM), 80.5 in the series with mir-15a miRNA (10 nM) and 109.9 in the series on mir-15a miRNA (30 nM). Further, in the series on mir-15a pri-miRNA, the “mir-15a pri-miRNA expression % UTC” value was 171 % UTC. For “328088 (antisense eA*eA*eG*e[5mC]*e[5mC]*d[5mC]*dA*dT*d[5mC]*dT*dG*dT*dG*dG*d[5mC]*eT*eT*e[5mC]*eA*e[5mC]) [compound 328088]”, the “percent control luciferase expression” value with mir-30a pri-miRNA is listed as 107 percent control.

In the case of “328081 (antisense eT*eG*eA*eA*eA*dG*d[5mC]*d[5mC]*d[5mC]*dA*dT*d[5mC]*dT*dG*dT*eG*eG*e[5mC]*eT*eT) [compound 328081]”, the “percent control luciferase expression” value in the series on mir-30a pri-miRNA came to 80 percent control. On to “ISIS 328088: 5-10-5 2′-MOE gapmer, pseudo half-knot compound targeting the mir-30a pri-miRNA (antisense eA*eA*eG*e[5mC]*e[5mC]*d[5mC]*dA*dT*d[5mC]*dT*dG*dT*dG*dG*d[5mC]*eT*eT*e[5mC]*eA*e[5mC]; pseudo half-knot compound)”, for which the “reversing the mir-30a miRNA-mediated silencing of luciferase reporter” value in the series on mir-30a pri-miRNA (150 nM, then mir-30a pri-miRNA mimic) is “restoring luciferase reporter expression to near control levels”. In the case of “328087 (antisense AAGCCCATCTGTGGCTTCAC; all 2'-MOE, all phosphorothioate, methylation of C not given here; pseudo half-knot design targeting pri-miRNA hairpin) [compound 328087]”, in the series on mir-30a pri-miRNA, the “percent control luciferase expression” value is reported as 83 percent control.

As to “328086 (antisense e[5mC]*eA*eT*e[5mC]*eT*dG*dT*dG*dG*d[5mC]*dT*dT*d[5mC]*dA*d[5mC]*eA*eG*e[5mC]*eT*eT) [compound 328086]”, the “percent control luciferase expression” value in the series on mir-30a pri-miRNA is on record as 95 percent control. Still for that read-out and setting: the same measure for “328078 (antisense e[5mC]*e[5mC]*e[5mC]*eA*eT*d[5mC]*dT*dG*dT*dG*dG*d[5mC]*dT*dT*d[5mC]*eA*e[5mC]*eA*eG*e[5mC]) [compound 328078]”: 63 percent control; for “328080 (antisense TGAAAGCCCATCTGTGGCTT; all 2'-MOE, all phosphorothioate, methylation of C not given here) [compound 328080]”: 72 percent control. On the same count and under the same terms, the same measure for “328076 (antisense eG*e[5mC]*eT*eT*e[5mC]*dA*d[5mC]*dA*dG*d[5mC]*dT*dT*d[5mC]*d[5mC]*dA*eG*eT*e[5mC]*eG*eA) [compound 328076]”: 57 percent control.
